The text below walks through data of patent US20210380548A1, “Fused [1,2,4]Thiadiazine Derivatives Which Act as KAT Inhibitors of the MYST Family” (CTxT Pty Limited, priority 2017, published 2021).

Each structure is given as a SMILES string.

In assay [1] the target is T1, TIP60-KAT5 (Homo sapiens, UniProt Q92993).
T1 construct: encoding amino acid residues 2 to 461 (Uniprot Q92993-2) of human KAT5 isoform; made in house; host or cells: E. coli BL21 DE3
The assay can be described thus: Acetyltransferase biochemical assay (AlphaScreen), KAT5. The following applies: Table 1 (TIP60-KAT5); 0.4 μM Acetyl coenzyme A, histone H4, 10 nM enzyme. On the technique in general: Alpha assays give light when donor and acceptor beads are brought close together.

Assay [2] has as its target T2, HBO-KAT7 (Homo sapiens, UniProt O95251).
T2 construct: encoding amino acid residues 325 to 611 (Uniprot 095251-1) of human KAT7; made in house; host or cells: E. coli BL21 DE3 RIL
The assay can be described thus: Acetyltransferase biochemical assay (AlphaScreen), KAT7. The following applies: Table 3 (HBO-KAT7); 0.4 μM Acetyl coenzyme A, histone H3.1, 40 nM enzyme.

Assay [3] addresses T1, TIP60-KAT5. The assay can be described thus: Revised Acetyltransferase Biochemical Assay, KAT5. Conditions: 10 nM KAT5, 1 μM AcCoA, 100 nM histone H4, 90 min.
A further assay concerns the target T3, MOZ-KAT6A (Homo sapiens, UniProt Q92794, A567V).
T3 construct: encoding amino acid residues 507 to 778 (Uniprot Q92794-1) of human KAT6A; made in house; host or cells: E. coli BL21 DE3
The assay can be described thus: Revised Acetyltransferase Biochemical Assay, KAT6A. Conditions: Table 8 (MOZ-KAT6A), 1 μM Acetyl coenzyme A.

Assay [4] has as its target T2, HBO-KAT7. The assay can be described thus: Revised Acetyltransferase Biochemical Assay, KAT7. The following applies: Table 9 (HBO-KAT7), 1 μM Acetyl coenzyme A.

T3 sequence (Q92794 507-778 A567V limits assumed): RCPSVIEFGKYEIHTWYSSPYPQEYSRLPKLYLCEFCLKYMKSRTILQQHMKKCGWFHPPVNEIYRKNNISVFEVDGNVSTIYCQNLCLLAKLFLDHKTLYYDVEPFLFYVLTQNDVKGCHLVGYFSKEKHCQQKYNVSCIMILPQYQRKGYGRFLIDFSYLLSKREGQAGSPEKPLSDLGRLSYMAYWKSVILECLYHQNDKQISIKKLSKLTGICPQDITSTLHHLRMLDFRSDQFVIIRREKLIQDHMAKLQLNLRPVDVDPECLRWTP
T1 sequence (Q92993 2-461 isoform Q92993-2): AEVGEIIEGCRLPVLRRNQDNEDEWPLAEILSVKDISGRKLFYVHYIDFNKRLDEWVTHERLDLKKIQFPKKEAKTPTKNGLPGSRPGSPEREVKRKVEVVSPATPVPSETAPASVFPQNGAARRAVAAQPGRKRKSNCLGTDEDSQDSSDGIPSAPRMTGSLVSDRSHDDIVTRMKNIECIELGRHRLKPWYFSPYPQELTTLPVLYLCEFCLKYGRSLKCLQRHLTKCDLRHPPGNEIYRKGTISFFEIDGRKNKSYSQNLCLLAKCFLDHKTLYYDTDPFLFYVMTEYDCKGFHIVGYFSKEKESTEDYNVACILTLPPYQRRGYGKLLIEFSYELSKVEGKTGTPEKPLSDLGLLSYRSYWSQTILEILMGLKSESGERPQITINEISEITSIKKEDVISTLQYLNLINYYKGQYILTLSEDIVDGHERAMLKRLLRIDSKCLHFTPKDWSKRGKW
T2 sequence (O95251 with tags, fused parts or gaps): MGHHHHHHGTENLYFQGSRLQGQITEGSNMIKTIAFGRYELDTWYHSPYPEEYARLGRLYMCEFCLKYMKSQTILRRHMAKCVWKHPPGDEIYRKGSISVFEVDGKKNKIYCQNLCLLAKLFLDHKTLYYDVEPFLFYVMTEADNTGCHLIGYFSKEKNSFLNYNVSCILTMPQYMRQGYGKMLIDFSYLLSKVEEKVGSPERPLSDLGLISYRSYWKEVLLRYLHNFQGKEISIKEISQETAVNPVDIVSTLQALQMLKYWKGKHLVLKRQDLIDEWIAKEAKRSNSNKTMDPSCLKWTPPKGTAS

One may read the IC50 as the concentration needed to halve the response being measured. Lower therefore signals greater potency. For `O=C(NCCc1ccc(CO)cc1)C1=Nc2ccc(I)cc2S(=O)(=O)N1` [Example 103], the IC50 against TIP60-KAT5 [1] and against HBO-KAT7 [2] was more than 125 µM each time.

On to `CC(NS(C)(=O)=O)c1ccc2c(c1)S(=O)(=O)NC(C(=O)NCC(c1ccccc1)c1ncco1)=N2` (stereo not shown) [Example 210, 7-(1-(Methylsulfonamido)ethyl)-N-(2-(oxazol-2-yl)-2-phenylethyl)-2H-benzo[e][1,2,4]thiadiazine-3-carboxamide 1,1-dioxide], for which the IC50 against TIP60-KAT5 [3] turned out to be 10.9 µM; at MOZ-KAT6A, 0.303 µM; at HBO-KAT7 [4], 1.12 µM.

Take `O=C(NCC(O)c1ccc(F)cc1)C1=Nc2ccc(I)cc2S(=O)(=O)N1` (stereo not shown) [Example 127]: the figures for the IC50 at TIP60-KAT5 [1] and at HBO-KAT7 [2] were 61.2 µM and 34.7 µM, respectively.

Take `C#Cc1ccc2c(c1)S(=O)(=O)NC(C(=O)NCC(c1ccccc1)c1ncco1)=N2` (stereo not shown) [Example 42, 7-ethynyl-N-(2-(oxazol-2-yl)-2-phenylethyl)-2H-benzo[e][1,2,4]thiadiazine-3-carboxamide 1,1-dioxide]: the IC50 was determined as 0.642 µM at TIP60-KAT5 [1] and 0.255 µM against HBO-KAT7 [2].

With `Cc1ncccc1-c1ccccc1CCNC(=O)C1=Nc2ccccc2S(=O)(=O)N1` [Example 6, N-(2-(2-Methylpyridin-3-yl)phenethyl)-2H-benzo[e][1,2,4]thiadiazine-3-carboxamide 1,1-dioxide], the IC50 against TIP60-KAT5 [3] was more than 125 µM; against MOZ-KAT6A it was 18.7 µM; at TIP60-KAT5 [1] it was 90.1 µM; against HBO-KAT7 [4], 21.3 µM.

Turning to `CN(C)C(=O)c1ccccc1CCNC(=O)C1=Nc2ccc(I)cc2S(=O)(=O)N1` [Example 111], the IC50 at TIP60-KAT5 [1] amounted to 16.6 µM; on HBO-KAT7 [2], 81.4 µM.

`O=C(NCC(O)c1ccccc1C(F)(F)F)C1=Nc2ccc(I)cc2S(=O)(=O)N1` (stereo not shown) [Example 95]: the IC50 against TIP60-KAT5 [1] was determined as 5.18 µM; against HBO-KAT7 [2] it was 4.22 µM.

Turning to `O=C(NCC(O)c1ccccc1F)C1=Nc2ccc(I)cc2S(=O)(=O)N1` (stereo not shown) [Example 89], the IC50 was 2.06 µM on TIP60-KAT5 [1] and 3.37 µM on HBO-KAT7 [2].

Turning to `O=C(NCC(c1ccccc1)c1nnc(C(F)F)o1)C1=Nc2ccc(I)cc2S(=O)(=O)N1` (stereo not shown) [Example 185], the IC50 came out at 0.994 µM on TIP60-KAT5 [3], 0.042 µM against MOZ-KAT6A and 0.264 µM against HBO-KAT7 [4].

For `COCc1ccccc1C(CNC(=O)C1=Nc2ccccc2S(=O)(=O)N1)c1ncco1` (stereo not shown) [Example 194], the IC50 at TIP60-KAT5 [3] was not below 125 µM; at MOZ-KAT6A it was 5.56 µM; against HBO-KAT7 [4] it was 26 µM.

`O=C(NCC1(c2ccccc2)CCCC1)C1=Nc2ccccc2S(=O)(=O)N1` [Example 205]: the IC50 turned out to be 30 µM against TIP60-KAT5 [3], 0.97 µM against MOZ-KAT6A and 2.73 µM on HBO-KAT7 [4].

As for `CC(=O)NC(C)c1ccc2c(c1)S(=O)(=O)NC(C(=O)NCC(c1ccccc1)c1ncco1)=N2` (stereo not shown) [Example 211, 7-(1-Acetamidoethyl)-N-(2-(oxazol-2-yl)-2-phenylethyl)-2H-benzo[e][1,2,4]thiadiazine-3-carboxamide 1,1-dioxide], the IC50 against TIP60-KAT5 [3] turned out to be 24.7 µM; against MOZ-KAT6A it was 2.18 µM; against HBO-KAT7 [4] it was 6.07 µM.

As for `O=C(NCC(O)c1cccc(Cl)c1)C1=Nc2ccc(I)cc2S(=O)(=O)N1` (stereo not shown) [Example 124], the values for the IC50 against TIP60-KAT5 [1] and on HBO-KAT7 [2] were 24.6 µM and 18.7 µM, respectively.

For `CNC(C)c1ccc2c(c1)S(=O)(=O)NC(C(=O)NCC(c1ccccc1)c1ncco1)=N2` (stereo not shown) [Example 209, 7-(1-(Methylamino)ethyl)-N-(2-(oxazol-2-yl)-2-phenylethyl)-2H-benzo[e][1,2,4]thiadiazine-3-carboxamide 1,1-dioxide], the IC50 worked out at 8.45 µM at TIP60-KAT5 [3], 0.378 µM on MOZ-KAT6A and 1.67 µM at HBO-KAT7 [4].

On to `COc1ccccc1C(O)CNC(=O)C1=Nc2ccc(I)cc2S(=O)(=O)N1` (stereo not shown) [Example 94], for which the IC50 at TIP60-KAT5 [1] amounted to 2.82 µM; against HBO-KAT7 [2] it was 3.8 µM.

Turning to `O=C(NCCc1ccc(O)cc1)C1=Nc2ccc(I)cc2S(=O)(=O)N1` [Example 105], the IC50 against TIP60-KAT5 [1] is 46.3 µM; on HBO-KAT7 [2], more than 125 µM.

Turning to `Cn1cc(-c2ccccc2CCNC(=O)C2=Nc3ccccc3S(=O)(=O)N2)cn1` [Example 40, N-(2-(1-methyl-1H-pyrazol-4-yl)phenethyl)-2H-benzo[e][1,2,4]thiadiazine-3-carboxamide 1,1-dioxide], the IC50 against TIP60-KAT5 [1] was more than 125 µM; against HBO-KAT7 [2], 9.45 µM.

With `COc1cccc(C(O)CNC(=O)C2=Nc3ccc(I)cc3S(=O)(=O)N2)c1` (stereo not shown) [Example 121], the IC50 came to 40.8 µM against TIP60-KAT5 [1] and 47 µM on HBO-KAT7 [2].

`O=C(NCC(O)C1CCCCC1)C1=Nc2ccc(Cl)cc2S(=O)(=O)N1` (stereo not shown) [Example 200]: the values for the IC50 on TIP60-KAT5 [3], on MOZ-KAT6A and on HBO-KAT7 [4] were more than 125 µM, 9.8 µM and more than 125 µM, respectively.

Consider `O=C(NCC(C(=O)N1CCCC1)c1ccccc1)C1=Nc2ccccc2S(=O)(=O)N1` (stereo not shown) [Example 44, N-(3-oxo-2-phenyl-3-(pyrrolidin-1-yl)propyl)-2H-benzo[e][1,2,4]thiadiazine-3-carboxamide 1,1-dioxide], for which the IC50 at TIP60-KAT5 [1] was more than 125 µM.

In the case of `COc1ccccc1C(O)CNC(=O)C1=Nc2ccc(I)cc2S(=O)(=O)N1` (single isomer, unassigned) [Example 150], the IC50 amounted to 1.38 µM against TIP60-KAT5 [3], 1.02 µM on MOZ-KAT6A, 3.17 µM against TIP60-KAT5 [1] and 3.59 µM at HBO-KAT7 [4].

As for `COc1ccc(CCNC(=O)C2=Nc3ccc(I)cc3S(=O)(=O)N2)cc1` [Example 106], the IC50 against TIP60-KAT5 [1] and at HBO-KAT7 [2] was more than 125 µM each time.

Molecule `O=C(NCCc1ccccc1C(=O)O)C1=Nc2ccccc2S(=O)(=O)N1` [Example 30, 2-(2-(1,1-Dioxido-2H-benzo[e][1,2,4]thiadiazine-3-carboxamido)ethyl)benzoic Acid] displayed an IC50 against TIP60-KAT5 [1] of 112 µM.

`O=C(NCC(O)c1ccccc1OCc1ccccc1)C1=Nc2ccc(I)cc2S(=O)(=O)N1` (stereo not shown) [Example 119]: the IC50 was found to be 5.26 µM against TIP60-KAT5 [1] and 18.5 µM against HBO-KAT7 [2].

For the molecule `O=C(NCC(F)c1ccccc1)C1=Nc2ccc(I)cc2S(=O)(=O)N1` (stereo not shown) [Example 123], the IC50 against TIP60-KAT5 [1] is 5.01 µM; on HBO-KAT7 [2], 1.72 µM.

Turning to `NC(=O)c1ccccc1CCNC(=O)C1=Nc2ccc(I)cc2S(=O)(=O)N1` [Example 230, N-(2-Carbamoylphenethyl)-7-iodo-2H-benzo[e][1,2,4]thiadiazine-3-carboxamide 1,1-dioxide], the figures for the IC50 against TIP60-KAT5 [3], at MOZ-KAT6A and at HBO-KAT7 [4] were 4.9 µM, 0.761 µM and 2.3 µM, respectively.

`COc1ccc2c(c1)S(=O)(=O)NC(C(=O)NCC(c1cccc(Cl)c1)c1ncco1)=N2` (stereo not shown) [Example 223, N-(2-(3-Chlorophenyl)-2-(oxazol-2-yl)ethyl)-7-methoxy-2H-benzo[e][1,2,4]thiadiazine-3-carboxamide 1,1-dioxide]: the IC50 against TIP60-KAT5 [3] was determined as 3.32 µM; at MOZ-KAT6A it was 0.216 µM; at HBO-KAT7 [4], 1.01 µM.

For `O=C(NCCc1ccccc1-c1n[nH]c(=O)o1)C1=Nc2ccccc2S(=O)(=O)N1` [Example 195], the IC50 came out at 1.85 µM on TIP60-KAT5 [3], 0.209 µM against MOZ-KAT6A and 2.21 µM at HBO-KAT7 [4].

`O=C(NCCc1ccncc1)C1=Nc2ccc(I)cc2S(=O)(=O)N1` [Example 104]: the IC50 against TIP60-KAT5 [1] and at HBO-KAT7 [2] was more than 125 µM throughout.

Regarding `O=C(NCC(c1cccc(Cl)c1)c1ncco1)C1=Nc2ccc(O)cc2S(=O)(=O)N1` (stereo not shown) [Example 224, N-(2-(3-chlorophenyl)-2-(oxazol-2-yl)ethyl)-7-hydroxy-2H-benzo[e][1,2,4]thiadiazine-3-carboxamide 1,1-dioxide], the IC50 against TIP60-KAT5 [3] was found to be 9.01 µM; against MOZ-KAT6A it was 0.165 µM; against HBO-KAT7 [4] it was 0.204 µM.

As for `O=C(NCCc1ccccc1C(=O)O)C1=Nc2ccc(I)cc2S(=O)(=O)N1` [Example 155, 2-(2-(7-Iodo-1,1-dioxido-2H-benzo[e][1,2,4]thiadiazine-3-carboxamido)ethyl)benzoic Acid], the IC50 worked out at 2.68 µM against TIP60-KAT5 [3], 0.595 µM at MOZ-KAT6A and 9.52 µM on HBO-KAT7 [4].

In the case of `CC(N)c1ccc2c(c1)S(=O)(=O)NC(C(=O)NCC(c1ccccc1)c1ncco1)=N2` (stereo not shown) [Example 208, 7-(1-Aminoethyl)-N-(2-(oxazol-2-yl)-2-phenylethyl)-2H-benzo[e][1,2,4]thiadiazine-3-carboxamide 1,1-dioxide], the IC50 against TIP60-KAT5 [3] is 13.3 µM; against MOZ-KAT6A it was 1.6 µM; against HBO-KAT7 [4], 4.51 µM.

As for `O=C(NCC1(c2ncco2)CCCC1)C1=Nc2ccccc2S(=O)(=O)N1` [Example 242, N-((1-(oxazol-2-yl)cyclopentyl)methyl)-2H-benzo[e][1,2,4]thiadiazine-3-carboxamide 1,1-dioxide], the figures for the IC50 on TIP60-KAT5 [3], on MOZ-KAT6A and against HBO-KAT7 [4] were 123 µM, 2.77 µM and 33 µM, respectively.

As to `CC(C)OC(=O)NC(CNC(=O)C1=Nc2ccccc2S(=O)(=O)N1)c1ccccc1` (stereo not shown) [Example 50, Isopropyl (2-(1,1-dioxido-2H-benzo[e][1,2,4]thiadiazine-3-carboxamido)-1-phenylethyl) carbamate], the IC50 against TIP60-KAT5 [3] is more than 125 µM; against MOZ-KAT6A it was 6.19 µM; at HBO-KAT7 [4], 49.1 µM.

Consider `O=C(NCCc1ccccc1-n1ccnc1)C1=Nc2ccc(I)cc2S(=O)(=O)N1` [Example 192], for which the IC50 against TIP60-KAT5 [3] was 11.1 µM; at MOZ-KAT6A it was 0.613 µM; against HBO-KAT7 [4] it was 2.3 µM.
